# Source: the kinase profiling compilation of Christmann-Franck et al. (2016)
# Values joined by “and” are separate entries in the source; they are usually repeats but may differ in a detail not shown here. Identical values can stand only once.
# Assays:
# Conditions in all cases: compound 10.0 µM
# CDK3 CCNE1 (human) = CDK3 CCNE1 (human) (UniProt P24864+Q00526)
# PHKG1 (human) = PHKG1 (human) (UniProt Q16816)
# CAMK1G (human) = CAMK1G (human) (UniProt Q96NX5)
# MST1R (human) = MST1R (human) (UniProt Q04912)
# EGFR (human) = EGFR (human) (UniProt P00533)
# PRKCA (human) = PRKCA (human) (UniProt P17252)
# HIPK4 (human) = HIPK4 (human) (UniProt Q8NE63)
# MAPKAPK2 (human) = MAPKAPK2 (human) (UniProt P49137)
# CSNK2A1 (human) = CSNK2A1 (human) (UniProt P68400)
# AKT1 (human) = AKT1 (human) (UniProt P31749)
# MAPK14 (human) = MAPK14 (human) (UniProt Q16539)
# PRKD1 (human) = PRKD1 (human) (UniProt Q15139)
# SGK3 (human) = SGK3 (human) (UniProt Q96BR1)
# CDK2 CCNE1 (human) = CDK2 CCNE1 (human) (UniProt P24864+P24941)
# Sequence of CDK2 CCNE1 (human) (P24864 whole entry, looked up, other chains not shown): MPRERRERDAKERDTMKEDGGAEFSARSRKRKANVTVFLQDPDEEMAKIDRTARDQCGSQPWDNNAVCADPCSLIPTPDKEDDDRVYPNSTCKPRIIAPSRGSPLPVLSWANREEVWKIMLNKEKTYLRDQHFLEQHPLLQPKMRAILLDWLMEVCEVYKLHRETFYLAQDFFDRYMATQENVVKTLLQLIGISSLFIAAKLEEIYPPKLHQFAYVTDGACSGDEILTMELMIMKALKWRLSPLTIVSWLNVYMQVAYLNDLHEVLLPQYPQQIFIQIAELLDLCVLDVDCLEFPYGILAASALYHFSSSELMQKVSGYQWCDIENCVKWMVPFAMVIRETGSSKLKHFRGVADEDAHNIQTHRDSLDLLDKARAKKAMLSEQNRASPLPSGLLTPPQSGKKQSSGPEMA
# PTK2B (human) = PTK2B (human) (UniProt Q14289)
# CDK1 CCNB1 (human) = CDK1 CCNB1 (human) (UniProt P06493+P14635)
# ABL2 (human) = ABL2 (human) (UniProt P42684)
# CLK1 (human) = CLK1 (human) (UniProt P49759)
# PRKG1 (human) = PRKG1 (human) (UniProt Q13976)
# Sequence of PRKG1 (human) (Q13976 whole entry, looked up): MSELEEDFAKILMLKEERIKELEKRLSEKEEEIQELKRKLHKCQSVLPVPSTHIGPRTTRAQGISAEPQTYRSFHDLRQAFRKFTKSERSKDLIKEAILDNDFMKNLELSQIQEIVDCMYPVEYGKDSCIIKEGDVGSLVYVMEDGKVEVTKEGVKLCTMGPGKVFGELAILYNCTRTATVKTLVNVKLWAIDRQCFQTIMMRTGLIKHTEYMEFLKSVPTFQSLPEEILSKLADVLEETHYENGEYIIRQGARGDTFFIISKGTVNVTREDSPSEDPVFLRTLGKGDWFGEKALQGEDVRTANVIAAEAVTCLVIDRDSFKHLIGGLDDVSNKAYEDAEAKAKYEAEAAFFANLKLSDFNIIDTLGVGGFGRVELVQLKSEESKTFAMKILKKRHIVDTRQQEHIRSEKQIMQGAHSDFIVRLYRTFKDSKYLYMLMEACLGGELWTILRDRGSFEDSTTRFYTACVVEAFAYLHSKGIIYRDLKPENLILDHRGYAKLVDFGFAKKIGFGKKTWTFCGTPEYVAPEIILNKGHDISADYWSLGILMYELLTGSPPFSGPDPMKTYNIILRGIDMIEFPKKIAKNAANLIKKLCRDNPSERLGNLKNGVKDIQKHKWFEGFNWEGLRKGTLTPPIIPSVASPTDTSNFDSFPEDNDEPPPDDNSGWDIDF
# CAMK2B (human) = CAMK2B (human) (UniProt Q13554)
# NEK1 (human) = NEK1 (human) (UniProt Q96PY6)
# EPHB2 (human) = EPHB2 (human) (UniProt P29323)
# LRRK2 (human) = LRRK2 (human) (UniProt Q5S007)
# STK39 (human) = STK39 (human) (UniProt Q9UEW8)
# AKT3 (human) = AKT3 (human) (UniProt Q9Y243)
# PLK2 (human) = PLK2 (human) (UniProt Q9NYY3)
# RPS6KA3 KD1 KD2 (human) = RPS6KA3 KD1 KD2 (human) (UniProt P51812)
# NUAK2 (human) = NUAK2 (human) (UniProt Q9H093)
# MELK (human) = MELK (human) (UniProt Q14680)
# PDGFRB (human) = PDGFRB (human) (UniProt P09619)
# PLK3 (human) = PLK3 (human) (UniProt Q9H4B4)
# LIMK1 (human) = LIMK1 (human) (UniProt P53667)
# Sequence of LIMK1 (human) (P53667 whole entry, looked up): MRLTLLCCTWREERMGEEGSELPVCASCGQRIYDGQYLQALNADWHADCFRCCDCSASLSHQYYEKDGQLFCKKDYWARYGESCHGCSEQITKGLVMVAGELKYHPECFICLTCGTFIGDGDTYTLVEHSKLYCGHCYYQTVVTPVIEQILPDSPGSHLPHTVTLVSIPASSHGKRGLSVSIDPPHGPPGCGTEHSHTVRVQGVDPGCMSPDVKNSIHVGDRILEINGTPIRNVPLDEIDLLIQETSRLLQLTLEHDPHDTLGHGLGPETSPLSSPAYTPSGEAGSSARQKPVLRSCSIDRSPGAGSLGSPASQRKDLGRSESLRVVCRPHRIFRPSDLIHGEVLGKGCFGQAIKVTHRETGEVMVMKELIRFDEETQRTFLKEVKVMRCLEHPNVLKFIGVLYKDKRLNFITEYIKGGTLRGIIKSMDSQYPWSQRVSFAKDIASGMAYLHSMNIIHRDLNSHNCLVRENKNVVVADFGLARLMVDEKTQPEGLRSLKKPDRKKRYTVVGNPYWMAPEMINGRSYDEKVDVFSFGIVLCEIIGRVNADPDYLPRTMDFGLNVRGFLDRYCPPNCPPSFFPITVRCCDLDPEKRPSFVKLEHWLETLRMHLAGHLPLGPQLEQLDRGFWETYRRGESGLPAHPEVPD
# EPHA3 (human) = EPHA3 (human) (UniProt P29320)
# CDK9 CCNT1 (human) = CDK9 CCNT1 (human) (UniProt O60563+P50750)
# IKBKB (human) = IKBKB (human) (UniProt O14920)
# STK10 (human) = STK10 (human) (UniProt O94804)
# Sequence of STK10 (human) (O94804 whole entry, looked up): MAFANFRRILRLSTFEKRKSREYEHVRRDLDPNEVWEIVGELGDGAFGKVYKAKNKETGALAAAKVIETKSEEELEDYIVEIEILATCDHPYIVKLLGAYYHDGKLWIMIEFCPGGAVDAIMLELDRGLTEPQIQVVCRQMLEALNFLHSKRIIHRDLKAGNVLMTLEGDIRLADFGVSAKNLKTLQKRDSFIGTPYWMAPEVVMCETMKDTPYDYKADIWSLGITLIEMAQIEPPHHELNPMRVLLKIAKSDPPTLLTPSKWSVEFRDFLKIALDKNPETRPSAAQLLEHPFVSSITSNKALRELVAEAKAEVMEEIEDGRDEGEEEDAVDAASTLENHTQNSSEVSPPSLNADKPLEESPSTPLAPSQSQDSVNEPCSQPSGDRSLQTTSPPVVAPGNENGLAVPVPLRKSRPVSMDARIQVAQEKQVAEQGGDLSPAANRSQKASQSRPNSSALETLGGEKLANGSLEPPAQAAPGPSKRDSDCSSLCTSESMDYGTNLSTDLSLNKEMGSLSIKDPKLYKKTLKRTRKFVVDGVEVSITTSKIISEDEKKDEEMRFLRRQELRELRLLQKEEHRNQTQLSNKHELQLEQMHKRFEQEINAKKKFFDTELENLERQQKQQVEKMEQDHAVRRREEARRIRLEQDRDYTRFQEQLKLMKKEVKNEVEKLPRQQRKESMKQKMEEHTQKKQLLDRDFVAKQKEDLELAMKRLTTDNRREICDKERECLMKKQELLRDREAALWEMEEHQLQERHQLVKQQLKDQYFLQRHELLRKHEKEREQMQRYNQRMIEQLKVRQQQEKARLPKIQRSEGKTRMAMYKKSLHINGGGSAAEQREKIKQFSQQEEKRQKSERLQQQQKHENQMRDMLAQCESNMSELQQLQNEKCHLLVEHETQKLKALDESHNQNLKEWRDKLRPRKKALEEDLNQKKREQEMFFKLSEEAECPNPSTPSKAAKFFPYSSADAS
# SRPK3 (human) = SRPK3 (human) (UniProt Q9UPE1)
# DDR2 (human) = DDR2 (human) (UniProt Q16832)
# SRC (human) = SRC (human) (UniProt P12931)
# Sequence of SRC (human) (P12931 whole entry, looked up): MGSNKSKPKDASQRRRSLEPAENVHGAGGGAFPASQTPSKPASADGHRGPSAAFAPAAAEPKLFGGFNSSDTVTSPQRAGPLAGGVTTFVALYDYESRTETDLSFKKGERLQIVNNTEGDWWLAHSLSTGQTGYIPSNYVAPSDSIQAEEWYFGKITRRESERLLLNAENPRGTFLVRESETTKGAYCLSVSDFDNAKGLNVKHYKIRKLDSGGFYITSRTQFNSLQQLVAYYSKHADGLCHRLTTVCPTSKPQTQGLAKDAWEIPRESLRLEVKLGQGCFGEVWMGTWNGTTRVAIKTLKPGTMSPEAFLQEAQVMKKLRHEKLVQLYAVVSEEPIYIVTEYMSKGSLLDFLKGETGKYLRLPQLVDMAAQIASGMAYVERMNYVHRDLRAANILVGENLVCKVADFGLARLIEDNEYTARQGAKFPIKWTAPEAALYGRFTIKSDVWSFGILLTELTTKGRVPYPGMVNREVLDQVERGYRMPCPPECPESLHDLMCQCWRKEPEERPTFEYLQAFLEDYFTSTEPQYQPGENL
# ROCK2 (human) = ROCK2 (human) (UniProt O75116)
# Sequence of ROCK2 (human) (O75116 whole entry, looked up): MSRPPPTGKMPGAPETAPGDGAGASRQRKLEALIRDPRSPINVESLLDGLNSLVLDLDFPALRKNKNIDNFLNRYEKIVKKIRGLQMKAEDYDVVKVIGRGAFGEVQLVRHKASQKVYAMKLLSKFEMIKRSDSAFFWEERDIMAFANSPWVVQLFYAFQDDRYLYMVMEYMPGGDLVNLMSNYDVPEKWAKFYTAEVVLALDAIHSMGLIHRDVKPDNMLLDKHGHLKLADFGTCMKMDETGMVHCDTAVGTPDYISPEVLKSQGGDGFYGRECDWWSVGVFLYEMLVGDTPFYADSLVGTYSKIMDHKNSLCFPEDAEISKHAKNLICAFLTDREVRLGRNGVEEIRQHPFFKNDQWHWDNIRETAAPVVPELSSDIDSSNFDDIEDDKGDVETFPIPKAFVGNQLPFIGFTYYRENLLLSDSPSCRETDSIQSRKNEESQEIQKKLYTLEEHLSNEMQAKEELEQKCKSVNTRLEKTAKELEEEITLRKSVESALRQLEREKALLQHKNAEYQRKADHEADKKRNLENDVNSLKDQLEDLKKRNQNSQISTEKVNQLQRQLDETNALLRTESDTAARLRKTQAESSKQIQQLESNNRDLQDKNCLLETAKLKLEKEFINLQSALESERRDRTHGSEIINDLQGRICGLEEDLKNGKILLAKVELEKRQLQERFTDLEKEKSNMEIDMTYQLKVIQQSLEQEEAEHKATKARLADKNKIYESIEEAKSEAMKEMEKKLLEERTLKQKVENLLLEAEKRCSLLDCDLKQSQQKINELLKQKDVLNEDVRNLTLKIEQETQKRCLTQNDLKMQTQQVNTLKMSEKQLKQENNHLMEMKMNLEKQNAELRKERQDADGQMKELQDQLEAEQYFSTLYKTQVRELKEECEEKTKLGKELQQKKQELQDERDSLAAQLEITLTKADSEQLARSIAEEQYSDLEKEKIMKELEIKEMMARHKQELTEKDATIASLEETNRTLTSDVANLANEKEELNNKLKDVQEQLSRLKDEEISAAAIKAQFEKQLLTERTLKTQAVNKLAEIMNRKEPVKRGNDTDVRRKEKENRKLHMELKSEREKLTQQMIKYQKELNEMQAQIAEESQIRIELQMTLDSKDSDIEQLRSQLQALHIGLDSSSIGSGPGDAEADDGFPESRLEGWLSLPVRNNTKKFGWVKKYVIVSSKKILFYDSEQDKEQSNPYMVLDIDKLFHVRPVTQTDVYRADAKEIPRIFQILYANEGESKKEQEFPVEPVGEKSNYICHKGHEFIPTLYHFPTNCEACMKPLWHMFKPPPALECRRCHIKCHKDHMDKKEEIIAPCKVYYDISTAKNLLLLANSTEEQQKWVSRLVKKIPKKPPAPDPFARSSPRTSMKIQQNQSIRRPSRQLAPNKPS
# MAP3K11 (human) = MAP3K11 (human) (UniProt Q16584)
# NTRK1 (human) = NTRK1 (human) (UniProt P04629)
# SGK2 (human) = SGK2 (human) (UniProt Q9HBY8)
# OXSR1 (human) = OXSR1 (human) (UniProt O95747)
# Sequence of CDK3 CCNE1 (human) (P24864 whole entry, looked up): as the sequence (P24864 whole entry, looked up, other chains not shown) above
# Sequence of CDK3 CCNE1 (human) (Q00526 whole entry, looked up): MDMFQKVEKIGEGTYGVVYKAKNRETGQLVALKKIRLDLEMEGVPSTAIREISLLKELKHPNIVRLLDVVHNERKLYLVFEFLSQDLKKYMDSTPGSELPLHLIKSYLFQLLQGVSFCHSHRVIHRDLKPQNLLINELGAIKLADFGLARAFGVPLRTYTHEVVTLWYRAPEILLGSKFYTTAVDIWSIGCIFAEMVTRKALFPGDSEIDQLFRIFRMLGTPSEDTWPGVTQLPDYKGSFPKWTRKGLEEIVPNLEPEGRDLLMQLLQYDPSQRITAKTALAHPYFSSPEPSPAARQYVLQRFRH
smiles,measurement,setting,value
CC[C@H](C)n1cc(C)c2c(C(=O)NCc3c(C)cc(C)[nH]c3=O)cc(-c3ccc(N4CCNCC4)nc3)cc21,residual activity,CDK3 CCNE1 (human),105%
same,residual activity,PHKG1 (human),98%
same,residual activity,CAMK1G (human),84%
same,residual activity,MST1R (human),97%
same,residual activity,EGFR (human),96.5%
same,residual activity,PRKCA (human),106%
same,residual activity,HIPK4 (human),88%
same,residual activity,MAPKAPK2 (human),99%
same,residual activity,CSNK2A1 (human),110%
same,residual activity,AKT1 (human),91%
same,residual activity,MAPK14 (human),100%
same,residual activity,PRKD1 (human),100%
same,residual activity,SGK3 (human),105%
same,residual activity,CDK2 CCNE1 (human),96%
same,residual activity,PTK2B (human),110%
same,residual activity,CDK1 CCNB1 (human),99%
same,residual activity,ABL2 (human),88%
same,residual activity,CLK1 (human),99%
same,residual activity,PRKG1 (human),95% and 90.5%
same,residual activity,CAMK2B (human),95.5%
same,residual activity,NEK1 (human),96.5%
same,residual activity,EPHB2 (human),95.5%
same,residual activity,LRRK2 (human),99%
same,residual activity,STK39 (human),95.5%
same,residual activity,AKT3 (human),94%
same,residual activity,PLK2 (human),93.5%
same,residual activity,RPS6KA3 KD1 KD2 (human),90.5%
same,residual activity,NUAK2 (human),103%
same,residual activity,MELK (human),79.5%
same,residual activity,PDGFRB (human),102%
same,residual activity,PLK3 (human),106%
same,residual activity,LIMK1 (human),99.5%
same,residual activity,EPHA3 (human),98%
same,residual activity,CDK9 CCNT1 (human),98%
same,residual activity,IKBKB (human),102%
same,residual activity,STK10 (human),90%
same,residual activity,SRPK3 (human),98%
same,residual activity,DDR2 (human),102%
same,residual activity,SRC (human),83.5%
same,residual activity,ROCK2 (human),98.5%
same,residual activity,MAP3K11 (human),95%
same,residual activity,NTRK1 (human),106%
same,residual activity,SGK2 (human),105%
same,residual activity,OXSR1 (human),92.5%
